One test relates to thymus weight. Put plainly: Thymolysis test (thymus weight reduction). Type of test: in vivo, rats (female). The settings on record: Rattus norvegicus, 120 h; 50% reduction in the thymus weight; rats of the Felt pellet test; oral on 4 successive days. The method, then: (§1) 2 felt pellets were implanted under the skin (scapula region) in female rats (90-110 g) under ether narcosis. The D-homosteroids were administered orally on 4 successive days commencing on the day of the implantation. On the fifth day the rats were killed, the granulomas which formed were removed, dried and weighed. The ED40, namely that dosage which gave a 40% reduction of the granulation weight, was determined. The thymus and kidney fresh weight as well as the weight-change were also determined.
Rats employed in the Felt pellet test were used for this test. The ED50, namely that dosage which gave a 50% reduction in the thymus weight, was determined.

The test system of test [1] is experimentally hyperemiated skin. Put plainly: Vasoconstriction test. The test is classed as in vivo. The following applies: concentration 0.1%, visual estimate, hyperemiated non-treated skin = 0, non-hyperemiated skin = 100; for Vasoconstriction, colour value, 4 hrs.: after 4 hours; for Vasoconstriction, colour value, 8 hrs.: after 8 hours. The procedure:
J. Derm. 69, 11 (1957)]. In this test, the degree of the vasoconstriction in relation to the time was estimated visually (after 4 and 8 hours). The colour value of the hyperemiated non-treated skin was rated as 0 and the colour value of the non-hyperemiated skin was rated as 100. The D-homosteroids were used in concentration of 0.1%.

In test [2] the test system is hind paw oedema (Mycobacterium butyricum). As to the kind of experiment: Adjuvant-paw oedema test. Type of test: in vivo, Lewis rats (female). The settings on record: in Rattus norvegicus, 50% oedema inhibition, given immediately before and 24 hours after, paw diameter at 48 hours. The procedure: This test was carried out on female Lewis rats weighing 130-150 g. The oedema was caused by the subplantar injection of Mycobacterium butyricum in the right hind paw (0.5 mg of M. butyricum/0.1 ml of liquid paraffin). The D-homosteroids (suspended in 0.5% tragacanth/0.9% sodium chloride) were administered immediately before and 24 hours after the establishment of the oedema. The paw diameter was measured before and 48 hours after the establishment of the oedema. The ED50, namely the dosage which brings about a 50% oedema inhibition, was determined by means of a graph.

Test [3] relates to granulomas (felt pellets implanted under the skin). As to the kind of experiment: Felt pellet test (granulation weight reduction). Type of test: in vivo, rats (female). The following applies: Rattus norvegicus, 120 h; 40% reduction of the granulation weight; oral on 4 successive days. The procedure:
as §1

As a reminder, the ED50 is the dose at which the effect has come halfway, by size or by number of responders.

Structures are written as SMILES.

`COC(=O)[C@@]1(OC(C)=O)CCC[C@H]2[C@@H]3CCC4=CC(=O)C=C[C@]4(C)[C@H]3[C@@H](O)C[C@@]21C` [17aα-acetoxy-11β-hydroxy-3-oxo-D-homoandrosta-1,4-diene-17aβ-carboxylic acid methyl ester]: in the test on thymus weight, the ED50 was 0.65 mg/kg. Moreover, in test [1], the “Vasoconstriction, colour value, 4 hrs.” value is reported as 70 and the “Vasoconstriction, colour value, 8 hrs.” value was 77. Also, the 50% effective dose (ED50) in test [2] was 3.5 mg/kg. Besides, the ED40 in test [3] was 3 mg/kg.
For `COC(=O)[C@@]1(OC(C)=O)CCC[C@H]2[C@@H]3CCC4=CC(=O)C=C[C@]4(C)[C@@]3(F)[C@@H](O)C[C@@]21C` [17aα-acetoxy-9α-fluoro-11β-hydroxy-3-oxo-D-homoandrosta-1,4-diene-17aβ-carboxylic acid methyl ester] the same measures were 0.9 mg/kg, 63, 77, 1.3 mg/kg and 9 mg/kg.
As for `COC(=O)[C@@]1(OC(C)=O)CCC[C@H]2[C@@H]3CCC4=CC(=O)CC[C@]4(C)[C@H]3[C@@H](O)C[C@@]21C` [17aα-acetoxy-11β-hydroxy-3-oxo-D-homoandrost-4-ene-17aβ-carboxylic acid methyl ester], in test [1], the “Vasoconstriction, colour value, 4 hrs.” value is given as 72 and the “Vasoconstriction, colour value, 8 hrs.” value is reported as 70.

The record behind these values is patent US4029692A, “Steroid carboxylic acids and derivatives” (priority 1975, dated 1977).
